The experiment has as its system human PGHS-2 protein expression. Briefly: Prostoglandin endoperoxide synthase-2 (PGHS-2) protein expression in LPS stimulated human monocytes. The settings on record: for inhibition of LPS induced PGHS-2 protein expression (inactive): up to 10 uM; for inhibited LPS induced PGHS-2 protein expression (active): rank order potency similar to that for inhibiting cytokine production. The format is cell-based. On the procedure: The following assay describes a method for determining the inhibitory effects of compounds of Formula (I) on human PGHS-2 protein expression in LPS stimulated human monocytes
Human peripheral blood monocytes were isolated from buffy coats by centrifugation through Ficoll and Percoll gradients. Cells were seeded at 2×10^6 /well in 24 well plates and allowed to adhere for 1 hour in RPMI supplemented with 1% human AB serum, 20 mM L-glutamine, Penicillin-Streptomycin and 10 mM HEPES. Compounds were added at various concentrations and incubated at 37° C. for 10 minutes. LPS was added at 50 ng/well (to induce enzyme expression) and incubated overnight at 37° C. The supernatant was removed and cells washed once in cold PBS. The cells were lysed in 100 μl of cold lysis buffer(50 mM Tris/HCl pH 7.5, 150 mM NaCl, 1% NP40, 0.5% sodium deoxycholate, 0.1% SDS, […] DNAse, 0.1% TRITON X-100, 1 mM PMSF, 1 mM leupeptin, 1 mM pepstatin). The lysate was centrifuged (10,000×g for 10 min. at 4° C.) to remove debris and the soluble fraction was subjected to SDS PAGE. analysis (12% gel). Protein separated on the gel were transferred onto nitrocellulose membrane by electrophoretic means for 2 hours at 60 volts. The membrane was pretreated for one hour in PBS/0.1% Tween 20 with 5% non-fat dry milk. After washing 3 times in PBS/Tween buffer, the membrane was incubated with a 1:2000 dilution of a monospecific antiserum to PGHS-2 or a 1:1000 dilution of an antiserum to PGHs-1 in PBS/Tween with 1% BSA for one hour with continuous shaking. The membrane was washed 3X in PBS/Tween and then incubated with a 1:3000 dilution of horseradish peroxidase conjugated donkey antiserum to rabbit Ig (Amersham) in PBS/Tween with 1% BSA for one hour with continuous shaking. The membrane was then washed 3X in PBS/Tween and the ECL immunodetection system (Amersham) was used to detect the level of expression of prostaglandin endoperoxide synthases-2.

The values below come from US5593991A, “Imidazole compounds, use and process of making” (priority 1995, dated 1997).

Consider `C[S+]([O-])c1ccc(-c2nc3n(c2-c2ccncc2)CCC3)cc1` (stereo not shown) [2-(4-Methylsulfinylphenyl)-3-(4-pyridyl)-6,7-dihydro-(5H)-pyrrolo[1,2-a]imidazole], for which the “inhibition of LPS induced PGHS-2 protein expression (inactive)” value (“inhibition” for short) is “inactive”.

For `Fc1ccc(-c2nc3n(c2-c2ccncc2)CCS3)cc1` [6-(4-Fluorophenyl)-2,3-dihydro-5-(4-pyridinyl)imidazo[2,1-b]thiazole], the “inhibited LPS induced PGHS-2 protein expression (active)” value is “active”.

Turning to `C[C@@H]1C[C@H]2[C@@H]3CCC4=CC(=O)C=C[C@]4(C)[C@@]3(F)[C@@H](O)C[C@]2(C)[C@@]1(O)C(=O)CO` [Dexamethasone], the “inhibited LPS induced PGHS-2 protein expression (active)” value was “active”.

Turning to `Fc1ccc(-c2ncn(CCCN3CCOCC3)c2-c2ccncc2)cc1` [Example 1, 1-[3-(4-Morpholinyl)propyl]-4-(4-fluorophenyl)-5-(4-pyridyl)imidazole], the “inhibited LPS induced PGHS-2 protein expression (active)” value is given as “active”.

For the molecule `CC(Cc1ccc(O)c(O)c1)C(C)Cc1ccc(O)c(O)c1` (stereo not shown) [NDGA], the “inhibition” value is “inactive”.

As for `O=C1CCN(c2ccccc2)N1` [phenidone], the “inhibition” value is “inactive”.

Consider `COc1ccc(C2CNC(=O)C2)cc1OC1CCCC1` (stereo not shown) [rolipram], for which the “inhibition” value is “inactive”.
